Experimental data: patent publication US11014917B2, “5-fluoro-c-(aryl or heterocyclyl)-glycoside derivatives useful as dual SGLT1 / SGLT2 modulators” (Janssen Pharmaceutica NV, priority 2017, dated 2021)

Legend:
[1] = target: T1, human SGLT2 (Homo sapiens, UniProt P31639); assay: SGLT2 assay: Na-dependent 14C-AMG uptake in CHO-K1 cells stably expressing human SGLT2; type: cell-based; settings: for IC50: average if tested more than once; for SGLT2 %-inhibition / inhibition at 0.3 µM: @ 0.3 μM
T1 construct: expressed in transfected cells
T1 sequence (P31639 1-672): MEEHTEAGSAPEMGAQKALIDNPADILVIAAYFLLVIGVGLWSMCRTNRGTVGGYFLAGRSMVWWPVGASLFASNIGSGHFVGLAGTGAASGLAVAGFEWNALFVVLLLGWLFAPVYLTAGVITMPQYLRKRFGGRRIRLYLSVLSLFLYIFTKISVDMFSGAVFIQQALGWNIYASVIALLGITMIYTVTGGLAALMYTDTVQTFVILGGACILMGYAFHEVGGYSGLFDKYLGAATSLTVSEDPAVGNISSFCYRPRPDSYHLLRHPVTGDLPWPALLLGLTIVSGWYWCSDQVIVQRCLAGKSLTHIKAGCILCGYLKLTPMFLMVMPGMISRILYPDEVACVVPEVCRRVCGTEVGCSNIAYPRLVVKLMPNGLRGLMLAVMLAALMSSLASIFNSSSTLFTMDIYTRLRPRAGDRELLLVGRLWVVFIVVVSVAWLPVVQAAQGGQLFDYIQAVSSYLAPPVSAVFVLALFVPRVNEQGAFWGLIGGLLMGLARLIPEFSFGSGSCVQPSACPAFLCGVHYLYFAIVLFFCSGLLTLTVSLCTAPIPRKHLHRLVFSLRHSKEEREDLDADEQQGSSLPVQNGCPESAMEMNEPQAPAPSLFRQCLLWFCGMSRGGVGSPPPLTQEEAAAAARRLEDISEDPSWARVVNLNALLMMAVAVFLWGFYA
Procedure: (§1) The ability of the compounds of formula (I) of the present invention to treat an SGLT-mediated condition was determined using the following procedures:
(§2) SGLT1 and SGLT2 were cloned in form of cDNA from human small intestine (Genbank M24847), and from human kidney (Genbank M95549), respectively. Subsequently, each full cDNA was subcloned into pcDNA with each construct's integrity verified through follow-on sequencing. To generate CHO-K1 cells that stably express human SGLT1 or human SGLT2, CHO-K1 cells were transfected using DMRIE-C reagent (Life Technologies, Gaithersburg, Md.). Transfected cells were then selected in the presence of 500 μg/ml of the Geneticin (G418 Cellgro Catalog No. 30234-Cl)
(§3) Individual clones were then characterized using the following cell-based assay for sodium-dependent glucose transport:
(§4) Inhibition of SGLT1 and SGLT2 activity was assessed in CHO K1 cells stably expressing either human SGLT1 or SGLT2, using the SGLT specific glucose analog methyl-glucopyranoside (Sigma Catalog No. M-9376). Cells were plated (45,000 cells/well) in white wall 96-well plates (COSTAR, Cat #3903) for 24 hours in growth medium, then a final concentration of 10 mM Na-Butyrate (ALDRICH Cat #30341-0) was added. The cells were incubated for 24 hours. On the day of the assay, cells were rinsed and treated with test compounds (at concentrations of 0.001 μM to 10 μM) in assay buffer (50 mM HEPES, 20 mM Tris base, 5 mM KCl, 1 mM MgCl2, 1 mM CaCl2 and 137 mM NaCl, pH 7.4) for 10 minutes. Cells were then incubated with ^14C-a-methyl-d-glucopyranoside (AMG, Amersham Catalog No. CFB 76), using 0.07 μCi per well in 500 μM AMG final concentration. The cells were incubated for 2 hours at 37° C. with 5% CO2 and washed two times with ice-cold Phosphate Buffer Solution (Cellgro Catalog No. 21030-CV). The cells were then solubilized by adding 60 μl of MICROSCINT™20 and the Na-dependent ^14C-AMG uptake was quantified by measuring radioactivity. Plates were counted in a TopCount (Packard, Meriden, Conn.)
(§5) Representative compounds of the present invention were tested according to the procedures as described in Biological Example 1 and 2 above, with results as listed in Table 5, below. Results are reported as the %-inhibition or IC50 value. Variability for the functional assay was typically within 20%.

[2] = target: T2, human SGLT1 (Homo sapiens, UniProt P13866); assay: SGLT1 assay: Na-dependent 14C-AMG uptake in CHO-K1 cells stably expressing human SGLT1; type: cell-based; settings: for IC50: average if tested more than once; for SGLT1 %-inhibition / inhibition at 0.3 µM: @ 0.3 μM
T2 construct: expressed in transfected cells
T2 sequence (P13866 1-664): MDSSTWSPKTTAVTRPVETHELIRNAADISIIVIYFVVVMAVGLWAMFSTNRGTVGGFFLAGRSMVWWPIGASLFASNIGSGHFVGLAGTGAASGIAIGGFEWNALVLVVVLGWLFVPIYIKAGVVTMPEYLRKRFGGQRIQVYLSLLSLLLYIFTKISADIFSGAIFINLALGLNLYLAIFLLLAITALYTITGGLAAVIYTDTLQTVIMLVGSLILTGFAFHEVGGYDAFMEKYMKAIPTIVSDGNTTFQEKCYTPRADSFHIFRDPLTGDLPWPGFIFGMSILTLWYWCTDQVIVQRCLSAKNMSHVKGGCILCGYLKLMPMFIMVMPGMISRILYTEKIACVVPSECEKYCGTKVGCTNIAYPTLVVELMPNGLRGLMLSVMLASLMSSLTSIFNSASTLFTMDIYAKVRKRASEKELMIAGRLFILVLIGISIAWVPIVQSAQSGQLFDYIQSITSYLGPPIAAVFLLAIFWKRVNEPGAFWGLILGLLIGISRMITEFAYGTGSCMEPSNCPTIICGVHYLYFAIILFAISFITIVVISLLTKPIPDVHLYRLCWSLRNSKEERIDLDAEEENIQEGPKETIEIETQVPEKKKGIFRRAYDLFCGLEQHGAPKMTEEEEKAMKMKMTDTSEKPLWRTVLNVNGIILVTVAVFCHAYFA
Procedure: as §1, §2, §3, §4, §5

Compound	IC50 [1] [nM]	IC50 [2] [nM]	SGLT2 %-inhibition [1] [% @ 0.3 μM]	SGLT1 %-inhibition [2] [% @ 0.3 μM]	also measured
Cc1cc(O)c([C@@H]2O[C@H](CO)[C@@H](F)[C@H](O)[C@H]2O)cc1Cc1cc2c(s1)CCN(C#N)C2 [Compound 103, 2-(5-((2S,3R,4R,5S,6R)-5-fluoro-3,4-dihydroxy-6-(hydroxymethyl)-tetrahydro-2H-pyran-2-yl)-4-hydroxy-2-methylbenzyl)-6,7-dihydrothieno[3,2-c]pyridine-5(4H)-carbonitrile]	3	86			
COc1cc(C)c(Cc2cc3ccccc3s2)cc1[C@@H]1O[C@H](CO)[C@@H](F)[C@H](O)[C@H]1O [Compound 18]	18	68			
OC[C@H]1O[C@@H](c2cc3c(c(Cc4ccc5c(c4)SCCO5)c2)OCC3)[C@H](O)[C@@H](O)[C@@H]1F [Compound 124]	147	698			
Cc1cc(O)c([C@@H]2O[C@H](CO)[C@@H](F)[C@H](O)[C@H]2O)cc1Cc1cc2c(s1)CCCC2=O [Compound 119]	11	156			
COc1c(Cc2cc3ccccc3s2)cc([C@@H]2O[C@H](CO)[C@@H](F)[C@H](O)[C@H]2O)c(O)c1C [Compound 14]			36.0	69.3	
OC[C@H]1O[C@@H](c2cc(Cc3ccc4c(c3)OCCO4)c(Cl)c3c2CCO3)[C@H](O)[C@@H](O)[C@@H]1F [Compound 154]	2	42			
Cc1ccc([C@@H]2O[C@H](CO)[C@@H](F)[C@H](O)[C@H]2O)cc1Cc1cc2c(s1)CCN(C#N)C2 [Compound 92, 2-(5-((2S,3R,4R,5S,6R)-5-fluoro-3,4-dihydroxy-6-(hydroxymethyl)-tetrahydro-2H-pyran-2-yl)-2-methylbenzyl)-6,7-dihydrothieno[3,2-c]pyridine-5(4H)-carbonitrile]					inhibition at 0.3 µM [1]: 76.2%; inhibition at 0.3 µM [2]: 29%
COc1c(Cc2cc3ccccc3s2)cc([C@@H]2O[C@H](CO)[C@@H](F)[C@H](O)[C@H]2O)c(OC)c1C [Compound 15]	68	100			
COc1cc(Cl)c(Cc2cc3c(s2)CCN(C(=O)c2nccs2)C3)cc1[C@@H]1O[C@H](CO)[C@@H](F)[C@H](O)[C@H]1O [Compound 106]			82.1	29.4	
CCOc1c(Cc2ccc3c(c2)OCCO3)cc([C@@H]2O[C@H](CO)[C@@H](F)[C@H](O)[C@H]2O)c2c1CCO2 [Compound 102, (2S,3R,4R,5S,6R)-2-[5-(2,3-dihydro-1,4-benzodioxin-6-ylmethyl)-4-ethoxy-2,3-dihydrobenzofuran-7-yl]-5-fluoro-6-(hydroxymethyl)tetrahydropyran-3,4-diol]					inhibition at 0.3 µM [1]: 40.7%; inhibition at 0.3 µM [2]: 27.6%
Cc1cnc(N2CCc3sc(Cc4cc([C@@H]5O[C@H](CO)[C@@H](F)[C@H](O)[C@H]5O)c(O)cc4C)cc3C2)s1 [Compound 111]	19	101			
COc1cc(C)c(Cc2cc3c(s2)CCN(C(=O)N2CCOCC2)C3)cc1[C@@H]1O[C@H](CO)[C@@H](F)[C@H](O)[C@H]1O [Compound 69]			60.3	20.4	
COc1ccc([C@@H]2O[C@H](CO)[C@@H](F)[C@H](O)[C@H]2O)cc1Cc1cc2c(s1)CCN(C#N)C2 [Compound 120]			54.7	6.6	
N#CN1CCc2sc(Cc3cc([C@@H]4O[C@H](CO)[C@@H](F)[C@H](O)[C@H]4O)ccc3Cl)cc2C1 [Compound 121]			79.8	20.5	
COc1cc(Cl)c([C@@H]2O[C@H](CC#N)[C@@H](F)[C@H](O)[C@H]2O)cc1Cc1cc2ccccc2s1 [Compound 26]	982	847			
Cc1cc(O)c([C@@H]2O[C@H](CN)[C@@H](F)[C@H](O)[C@H]2O)cc1Cc1cc2ccccc2s1 [Compound 24]	332	977			
OC[C@H]1O[C@@H](c2cc(Cc3cc4ccccc4s3)c(C3CC3)cc2O)[C@H](O)[C@@H](O)[C@@H]1F [Compound 29]	62	13			
COc1cc(O)c([C@@H]2O[C@H](CF)[C@@H](F)[C@H](O)[C@H]2O)cc1Cc1cc2ccccc2s1 [Compound 11, (2S,3R,4R,5S,6R)-2-[5-(1-benzothiophen-2-ylmethyl)-2-hydroxy-4-methoxyphenyl]-5-fluoro-6-(fluoromethyl)oxane-3,4-diol]	59	91			
Cc1cc(O)c([C@@H]2O[C@H](CO)[C@@H](F)[C@H](O)[C@H]2O)cc1Cc1cc2c(s1)CCN(C(=O)N1CCOCC1)C2 [Compound 67]			57.5	64.9	
CC1(CO)COc2c(Cc3ccc4c(c3)OCCO4)cc([C@@H]3O[C@H](CO)[C@@H](F)[C@H](O)[C@H]3O)cc21 (stereo partly shown) [Compound 88]			44.8	42.5	
Cc1c(Cc2ccc3c(c2)CCCO3)cc([C@@H]2O[C@H](CO)[C@@H](F)[C@H](O)[C@H]2O)c2c1CCO2 [Compound 130]			81.6	44.8	
CC1(C)Oc2c(Cc3ccc4c(c3)OCCO4)cc([C@@H]3O[C@H](CO)[C@@H](F)[C@H](O)[C@H]3O)cc2C1CO (stereo partly shown) [Compound 85]			10.1	37.4	
Cc1cnc(N2CCc3sc(Cc4cc([C@@H]5O[C@H](CO)[C@@H](F)[C@H](O)[C@H]5O)c(O)cc4C)cc3C2)s1 [Compound 117]			69.9	44.3	
COc1c(Cc2ccc3c(c2)CCCO3)cc([C@@H]2O[C@H](CO)[C@@H](F)[C@H](O)[C@H]2O)c2c1CCO2 [Compound 126, (2S,3R,4R,5S,6R)-2-(5-(chroman-6-ylmethyl)-4-methoxy-2,3-dihydrobenzofuran-7-yl)-5-fluoro-6-(hydroxymethyl)-tetrahydro-2H-pyran-3,4-diol]					inhibition at 0.3 µM [1]: 16.8%; inhibition at 0.3 µM [2]: 21.7%
COc1cc(O)c([C@@H]2O[C@H](CO)[C@@H](F)[C@H](O)[C@H]2O)cc1Cc1cc2c(s1)CCN(C(C)=O)C2 [Compound 79]	137	126			
COc1cc(CO)c([C@@H]2O[C@H](CO)[C@@H](F)[C@H](O)[C@H]2O)cc1Cc1cc2ccccc2s1 [Compound 34]			27.6	38.6	
